Results reported in patent US20230390296A1, “NOVEL TREATMENT AND PREVENTION OF SARCOPENIA-RELATED DISEASES” (KEIO UNIVERSITY, priority 2020, published 2023).
“And” between values parts separate entries of the source, which are not always exact repeats. Equal values may be shown once.

Assays:
P301S mouse models = experiment: Tau phosphorylation, memory and brain atrophy in tauopathy model; format: in vivo; conditions: P301S (FTDP-17) mouse model
sarcopenia mouse models [1] = experiment: Metabolic disease markers (LDH, ALT, TG, HDL-C, insulin, glucose, amylase, AST concentrations); format: in vivo; conditions: administered versus non-administered sarcopenia mouse models
Method: (§1) Mouse models were divided into two groups. LDH concentration, ALT concentration, TG concentration, HDL-C concentration, insulin concentration, glucose concentration, amylase concentration, AST concentration, and ALT concentration were measured for sarcopenia mouse models administered with OK-1 and sarcopenia mouse models without administration of OK-1.
as §1, with “C-82” for “OK-1”, “C-82.” for “OK-1.”

[2] = test system: muscle of mice (C57BL/6J) with exercise; experiment: Gene analysis (RNA-seq, GSEA) of muscle of administered mice with exercise; format: in vivo, mouse
Method: Gene analysis (RNA-seq) in OK-1 administered mice (C57BL/6J) with exercise was performed by the same method as Example 2.
The category of genes with differential expression identified in Example 5 was analyzed by the same method (GSEA) as Example 3 (FIG. 6).

[3] = test system: muscle of mice with/without exercise; experiment: Collation of top 100 differentially expressed muscle genes with NIH MedlinePlus (related diseases); parameters: species or system mouse
From the text: Diseases associated with top 100 genes observed to have differential expression in mice with/without exercise were found by collation with NIH MedlinePlus (FIG. 8).

sarcopenia mouse models [4] = experiment: Cardiac function test (echocardiogram and treadmill); format: in vivo; conditions: administered versus non-administered sarcopenia mouse models
Method: This Example used mouse models prepared in the Preparation Example.
Measurement can be taken using Kumamoto Mouse Clinic (KMC) of Kumamoto University.
Mouse models were divided into two groups. Cardiac function was tested for sarcopenia mouse models administered with OK-1 and sarcopenia mouse models without administration of OK-1. Cardiac function was tested and analyzed using an echocardiogram and treadmill.
Mouse models were divided into two groups. Cardiac function was tested for sarcopenia mouse models administered with C-82 and sarcopenia mouse models without administration of C-82. Cardiac function was tested and analyzed using an echocardiogram and treadmill.

[5] = test system: muscle of mice without exercise; experiment: Gene analysis (RNA-seq, GO, upstream transcription factor, GSEA) of muscle of administered mice without exercise; format: in vivo, mouse
Method: Gene analysis (RNA-seq) was performed in old mice administered with OK-1 with improved muscle strength and muscle mass. The method and reagent used were the following.
The quality of all reads was checked by using FastQC v0.11.8, and low quality reads were removed using Trimomatic (ver 0.38).
LEADING: 20 (remove bases with a quality score of less than 20 from the leading reads), TRAILING: 20, SLIDINGWINDOW: 4:15 (window size 4, average quality 15), MINLEN: 36 (remove reads that are less than […])
Each read obtained after filtering was mapped to reference genome GRCm38 by using STAR (ver 2.7.0.f). Mapping was performed using the default values of STAR.
1) Index preparation • Run Mode; genomeGenerate • Reference; GRCm38 • Annotation file; genecode version M24 • sjdbOverhang; 150 alignment was performed using the index prepared above. In addition, this was performed with default values without options.
To count the number of genes, featuecount (ver 1.6.4) was used to count the number for each gene name defined by a symbol name, where the number was counted in gene symbol units defined in genecode version M24.
The counted numbers were filtered for genes with a count data of 0 in all samples, subjected to TMM normalization using edgeR (ver 3.22.3), and corrected among samples. Initially, for understanding of the overall picture of the data, primary component analysis and clustering analysis were performed using count data after removal of low expression genes.
Differential expression of a pattern designated based on the obtained expression values was compared.
Differentially expressed genes were tested using edgeR. As the definition of differentially expressed gene, uncorrected p. value<0.05 was used as a cut-off value, and Fold Change of “pattern not used” and “2 or more or 0.5 or less” were used as the cut-off for calculation.
Gene enrichment analysis was performed on the resulting differentially expressed gene using gprofiler2 (version 0.1.6).
Expression values after normalization of resulting differentially expressed genes were extracted. Visual heatmap was drawn to study the change. […] This analysis was performed using RcisTarget (ver 1.8.0). RcisTarget performed analysis using a mouse database for 10 kbp upstream of TSS stored in RcisTarget. Details of analysis are the following (cited from https://scenic.aertslab.org/tutorials/RcisTarget.html).
The first step to estimate the over-representation of each motif on the gene-set is to calculate the Area Under the Curve (AUC) for each pair of motif-geneSet. This is calculated based on the recovery curve of the gene-set on the motif ranking (genes ranked decreasingly by the score of motif in its proximity, as provided in the motifRanking database).
The selection of significant motifs is done based on the Normalized Enrichment Score (NES). The NES is calculated—for each motif—based on the AUC distribution of all the motifs for the gene-set [(x-mean)/sd]. Those motifs that pass the given threshold (3.0 by default) are considered significant. […] In this way, the third step of the workflow is to identify which genes (of the gene-set) are highly ranked for each of the significant motifs. These genes were identified by a faster implementation based on an approximate distribution using the average at each rank.
The category of genes with a change in expression identified in Example 2 was analyzed with a software (GSEA), which is different from that in Example 2 (GO) (FIG. 3). Analysis with GSEA was performed as follows. GSEA performed categorization by the regulating gene. This is different from GO, which performs categorization by function.
Data was created on the relationship of activattion+unknown and repression+unknown for regulatory genes and transcription factors installed in TRRUST ver2. Gene enrichment analysis was performed using GSEA (https://www.gsea-msigdb.org/gsea/index.jsp) based on respective gene sets. local gsea-3.0 that starts up within java was used for GSEA.

[6] = C-82 administration, same method as Example 2

Row | Structure (SMILES) | phosphorylation of Tau, memory or brain atrophy (P301S mouse models) | pancreatic function, liver function and salivary gland function (sarcopenia mouse models [1]) | gene group associated with OK-1 by GSEA: genes regulating muscle genes with exercise ([2]; GSEA) | genes decreased (downregulated expression) significantly in muscle ([2]; OK-1 administration, p<0.05) [genes] | genes increased (upregulated expression) significantly in muscle ([2]; OK-1 administration, p<0.05) [genes] | gene group associated with OK-1: genes associated with muscle control with exercise ([2]; upstream transcription factors) | gene group associated with OK-1: genes with change in muscle control with/without exercise, disease-associated ([3]; top 100 genes) | cardiac function (sarcopenia mouse models [4]) | gene group associated with OK-1: genes associated with regulation of muscle without exercise [5] | upstream factors from upstream transcription factor analysis [5] | gene group associated with OK-1 by GSEA: involved in increase in muscle ([5]; GSEA, TRRUST ver2) | genes decreased (downregulated expression) significantly in muscle ([5]; OK-1 administration, p<0.05) | genes increased (upregulated expression) significantly in muscle ([5]; OK-1 administration, p<0.05) | change in gene expression in muscles [2, 6] | diseases associated with the top 100 differentially expressed genes ([3]; C-82 administration, mice with/without exercise) | change in gene expression in muscles [5, 6]
1 | C[C@H]1[C@H]2N(C(=O)CN(C)N2C(=O)NCc2ccccc2)[C@@H](Cc2ccc(OP(=O)(O)O)cc2)C(=O)N1Cc1cccc2cccnc12 [OK-1] | suppression in phosphorylation of Tau and improvement in memory or brain atrophy are observed | pancreatic function, liver function, and salivary gland function are improved | ETS2, ETS1, EP300, RUNX2, SMAD3, SMAD4, E2F1, NOTCH1, TRP53, PAX6, SMAD1, SP1, SPI1, and NFKB1 | 631 | 145 | Jun, Ets1, Sp1, Ep300, Usf2, Fosl1, Nfkb1, Smad3, Srf, Junb, Runx2, Ets2, Etv4, Tgfb1, and Tgfb1i1 | Dsp, Krt17, Comp, Krt86, Krt81, Krt83, Krt14, Abca12, Tchh, Krt5, Dsg4, Lpl, Myh6, Tfap2a, Col1a1, Lepr, Fn1, Col1a2, Col6a1, Col3a1, Mmp2, Acta2, F13a1, Col6a2, and Cx3cr1 | cardiac function is improved | Ppara, Pou2f2, Foxo1, Pparg, Pou2f1, Trp63, Sp1, Tcf3, Zeb1, Srebf1, Sp3, Ebf1, Mycn, and Pbx1 | Hnf4a and Gata4, Nrf1, and Hnf1a | IRF1, NFE2L2, PPARG, FOXO1, CEBPB, PPARA, CEBPA, STAT1, STAT5A, MYOD1, REL, NFKB1, SPI1, IRF8, SP1, and FOXM1 | 445 genes and 595 genes | 206 genes and 181 genes | – | – | –
2 | C[C@H]1[C@H]2N(C(=O)CN(C)N2C(=O)NCc2ccccc2)[C@@H](Cc2ccc(O)cc2)C(=O)N1Cc1cccc2cccnc12 [C-82, (6S,9S)—N-benzyl-6-(4-hydroxybenzyl)-2,9-dimethyl-4,7-dioxo-8-(quinolin-8-ylmethyl)hexahydro-2H-pyrazino[2,1-c][1,2,4]triazine-1(6H)-carboxamide] | suppression in phosphorylation of Tau and improvement in memory or brain atrophy are observed | pancreatic function, liver function, and salivary gland function are improved | – | – | – | – | – | cardiac function is improved | – | – | – | – | – | achieves the same result as OK-1 | achieves the same result as OK-1 | achieves the same result as OK-1
